Assay results: patent EP0554284B1, “PEPTIDE-BASED INHIBITORS OF HIV REPLICATION” (priority 1990, dated 1996)

Legend:
yeast tRNA = assay: TAR binding compared with yeast tRNA binding (specificity); conditions: result in words
[1] = system: truncated functional form of TAR RNA; assay: RNA gel mobility shift assay, TAR binding; parameters: species or system HIV; conditions: judged relative to tat(1-86) and the oligopeptide representing the tat basic domain; result in words
Protocol: This assay generally involves the incubation of a selected oligopeptide with gel-purified, radio-labelled TAR RNA, or tat-binding fragment of TAR RNA, that has been produced either by direct synthesis or through transcription of a corresponding DNA template. Samples are loaded onto non-denaturing polyacrylamide gel and subjected to electrophoresis, and then migration of labelled RNA through the gel is visualized on gel-exposed, X-ray film. Oligopeptides which bind TAR are identified in this assay by their characteristic, retarded migration on the gel, relative to TAR RNA to which no oligopeptide has bound. In this mobility shift assay, oligopeptides having an "enhanced" affinity for binding TAR RNA will resolve on the gel as bands which, in addition to displaying the retarded migration pattern characteristic of TAR-binding oligopeptides, will also appear with greater intensity and/or size than a band containing TAR RNA bound to tat (1-86).
(§1) TAR-binding affinity of the oligopeptides relative to HIV tat(1-86) and relative to tat fragments representing the tat basic domain, was evaluated by RNA gel mobility shift assay using as ligand a truncated functional form of TAR RNA having the sequence shown below.
Synthesis of the TAR fragment and its variant analogue was accomplished as described by Roy et al. in Genes and Development, 1990, 4:1365. […]

[2] = system: variant of TAR which does not bind tat; assay: RNA gel mobility shift assay, binding to non-functional TAR variant (specificity); parameters: species or system HIV; conditions: relative to binding to the non-functional TAR variant; result in words
Protocol: as §1
Synthesis of the TAR fragment and its variant analogue was accomplished as described by Roy et al. in Genes and Development, 1990, 4:1365. The TAR-binding assay was also performed in the manner reported by Roy et al., supra, which is incorporated herein by reference.

HIV (strain NL4-3) = assay type: cell-based
Description: Controls used water in place of peptide.

tat = conditions: literature, Green et al; cited from earlier work

**Q.** For `CC(=O)N[C@H](CCCNC(=N)N)C(=O)N[C@H](CCCNC(=N)N)C(=O)N[C@H](CCCNC(=N)N)C(=O)N[C@H](CCCNC(=N)N)C(=O)N[C@H](CCCNC(=N)N)C(=O)N[C@H](CCCNC(=N)N)C(=O)N[C@H](CCCNC(=N)N)C(=O)N[C@H](CCCNC(=N)N)C(=O)N[C@H](CCCNC(=N)N)C(N)=O` [peptide 4C, acetyl-[D-Arg]9-NH2], which specificity of binding (yeast tRNA) is on record?
**A.** confirmed

**Q.** What about the TAR-binding affinity [1] of the same compound?
**A.** comparable to the basic domain of wild type tat

**Q.** And the “specificity for binding to the functional TAR fragment” value [2]?
**A.** comparable to the wild type basic domain

**Q.** And the “inhibition of viral replication, as measured by p24 assay” value (HIV (strain NL4-3); HuT78 cells pretreated with 5µM peptide for 7 or 14 days, 10µM after infection, p24 at four and seven days after infection)?
**A.** ≥ 95%

**Q.** And the formation of syncytia (HIV (strain NL4-3); visual inspection of infected HuT78 cells, same treatment as p24 assay)?
**A.** completely inhibited

**Q.** For `CC(=O)N[C@H](CCCNC(=N)N)C(=O)N[C@H](CCCCN)C(=O)N[C@H](CCCCN)C(=O)N[C@H](CCCNC(=N)N)C(=O)N[C@H](CCCNC(=N)N)C(=O)N[C@H](CCC(N)=O)C(=O)N[C@H](CCCNC(=N)N)C(=O)N[C@H](CCCNC(=N)N)C(=O)N[C@H](CCCNC(=N)N)C(N)=O` [peptide 4G], which “effects on HIV inhibition” value (HIV (strain NL4-3); 5µM pretreatment of HuT78 cells, 7 or 14 days, result in words) is on record?
**A.** positive effects on HIV inhibition

**Q.** Which tat antagonist activity (tat) does the source give for Arg-Lys-Lys-Arg-Arg-Gln-Arg-Arg-Arg here?
**A.** Weak tat antagonist activity
